Drawing on US20250034159A1, “INHIBITORS OF EPIDERMAL GROWTH FACTOR RECEPTOR” (ORIC Pharmaceuticals, Inc., priority 2021, published 2025), this text covers IC50 for 21 compounds.

The subject of one test is BaF3_EGFR d19/CS cells. In words: Biological Activity Assay D: BaF3 cell proliferation assay, EGFR exon 19 deletion/C797S (BaF3 d19/CS). The format is cell-based. The conditions noted are these: Ba/F3 EGFR; BaF3_EGFR d19/CS cells, ~72 hours, CellTiter-Glo; read-out: BaF3 d19/CS IC50.
The next test deals with BaF3_EGFR LR/CS cells. In words: Biological Activity Assay D: BaF3 cell proliferation assay, EGFR L858R/C797S mutant (BaF3 LR/CS). It counts as cell-based. As to conditions: Ba/F3 EGFR; BaF3_EGFR LR/CS cells, ~72 hours, CellTiter-Glo; read-out: BaF3 LR/CS IC50. In general terms: ATP-based viability assays read luminescence as a measure of living cells.
The target of test [1] is recombinant human EGFR exon 19 deletion/C797S double mutant protein (Homo sapiens (Human), UniProt P00533, C797S/DEL746-750). Briefly: Biological Activity Assay C: biochemical assay against EGFR exon 19 deletion/C797S protein (EGFR d19/CS). The procedure, abridged: (§1)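 IC50 values were fitted with a 4-parameter model to reaction slopes taken from 90 kinetic reads spaced 120 s apart. The Phosphosens sensor/ATP working solution was 40 uM/4 mM, and compound was dosed as 16-point dilutions at 2.5% final DMSO.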

For another test, the system named is Ba/F3_EGFR WT cells. Briefly: Biological Activity Assay D: BaF3 cell proliferation assay, EGFR wild-type (BaF3 WT). The format is cell-based. The conditions noted are these: Ba/F3 EGFR; Ba/F3_EGFR WT cells, ~72 hours, CellTiter-Glo; read-out: BaF3 WT IC50.
Test [2] has as its target recombinant human EGFR L858R/C797S double mutant protein (Homo sapiens (Human), UniProt P00533, C797S/L858R). In words: Biological Activity Assay B: biochemical assay against EGFR L858R/C797S protein (EGFR LR/CS). Summed up:
as §1

pIC50: −log10 of the molar value.

recombinant human EGFR exon 19 deletion/C797S double mutant protein, sequence (P00533 other isoform, or with tags, fused parts or gaps C797S/del 1-668/del 746-750 limits assumed): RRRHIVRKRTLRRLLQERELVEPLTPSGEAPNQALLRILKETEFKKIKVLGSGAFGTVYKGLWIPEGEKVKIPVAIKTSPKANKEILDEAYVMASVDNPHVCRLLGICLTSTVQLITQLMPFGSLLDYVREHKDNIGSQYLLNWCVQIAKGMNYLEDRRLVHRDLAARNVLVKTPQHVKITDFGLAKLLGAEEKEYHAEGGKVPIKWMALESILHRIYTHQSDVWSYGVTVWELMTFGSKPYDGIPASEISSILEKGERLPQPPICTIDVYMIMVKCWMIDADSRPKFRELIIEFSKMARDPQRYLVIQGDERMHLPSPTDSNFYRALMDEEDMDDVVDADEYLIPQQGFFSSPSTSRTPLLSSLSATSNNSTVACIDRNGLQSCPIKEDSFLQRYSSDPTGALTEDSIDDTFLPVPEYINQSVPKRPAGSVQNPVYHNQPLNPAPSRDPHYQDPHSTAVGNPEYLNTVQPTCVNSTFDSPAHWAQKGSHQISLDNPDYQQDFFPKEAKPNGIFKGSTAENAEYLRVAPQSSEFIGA
recombinant human EGFR L858R/C797S double mutant protein, sequence (P00533 25-1210 C797S/L858R): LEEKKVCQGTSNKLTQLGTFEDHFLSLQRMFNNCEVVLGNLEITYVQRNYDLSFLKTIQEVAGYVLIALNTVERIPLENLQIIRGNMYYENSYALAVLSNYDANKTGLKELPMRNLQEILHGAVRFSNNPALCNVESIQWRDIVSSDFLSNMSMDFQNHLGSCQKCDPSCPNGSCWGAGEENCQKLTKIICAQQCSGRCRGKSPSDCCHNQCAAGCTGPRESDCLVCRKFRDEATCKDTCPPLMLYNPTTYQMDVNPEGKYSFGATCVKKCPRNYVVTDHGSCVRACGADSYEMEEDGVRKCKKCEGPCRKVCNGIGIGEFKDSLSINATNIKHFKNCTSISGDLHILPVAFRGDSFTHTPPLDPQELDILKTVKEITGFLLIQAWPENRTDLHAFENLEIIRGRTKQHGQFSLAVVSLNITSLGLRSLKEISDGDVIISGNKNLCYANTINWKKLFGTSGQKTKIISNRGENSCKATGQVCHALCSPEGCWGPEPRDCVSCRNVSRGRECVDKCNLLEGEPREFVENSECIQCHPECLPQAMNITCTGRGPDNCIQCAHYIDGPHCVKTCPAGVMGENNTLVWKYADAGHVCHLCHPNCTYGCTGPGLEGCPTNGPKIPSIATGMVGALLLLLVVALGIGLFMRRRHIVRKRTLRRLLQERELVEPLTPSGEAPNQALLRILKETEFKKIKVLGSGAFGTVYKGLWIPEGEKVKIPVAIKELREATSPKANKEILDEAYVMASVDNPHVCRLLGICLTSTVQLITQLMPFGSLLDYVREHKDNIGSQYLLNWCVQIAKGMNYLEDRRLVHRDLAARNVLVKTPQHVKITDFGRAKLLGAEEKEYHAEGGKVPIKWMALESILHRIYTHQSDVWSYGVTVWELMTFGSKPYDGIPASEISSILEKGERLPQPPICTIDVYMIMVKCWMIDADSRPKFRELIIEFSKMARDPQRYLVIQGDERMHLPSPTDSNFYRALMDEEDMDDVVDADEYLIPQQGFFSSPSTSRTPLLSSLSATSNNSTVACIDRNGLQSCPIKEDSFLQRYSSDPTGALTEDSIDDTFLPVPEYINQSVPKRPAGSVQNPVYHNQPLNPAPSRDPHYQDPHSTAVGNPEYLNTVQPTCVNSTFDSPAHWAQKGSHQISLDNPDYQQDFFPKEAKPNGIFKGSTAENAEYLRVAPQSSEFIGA

In the case of `O=S1(=O)CCC(Cn2cc(-c3ncnc4oc(-c5ccccc5)cc34)c(-c3ccc(F)cc3)n2)C1` (racemic) [Example 53, 3-{[3-(4-fluorophenyl)-4-(6-phenylfuro[2,3-d]pyrimidin-4-yl)-1H-pyrazol-1-yl]methyl}-1λ6-thiolane-1,1-dione], the pIC50 in the test with BaF3_EGFR d19/CS cells was 7.39; in the test with BaF3_EGFR LR/CS cells, 6.91; in test [1], 9.27; with Ba/F3_EGFR WT cells, 5.67; in test [2], 9.34.

Consider `Fc1ccc(-c2nn(CCC3COC3)cc2-c2ncnc3oc(-c4ccccc4)cc23)cc1` [Example 64, 4-{3-(4-Fluorophenyl)-1-[2-(oxetan-3-yl)ethyl]-1H-pyrazol-4-yl}-6-phenylfuro[2,3-d]pyrimidine], for which the pIC50 in the test on BaF3_EGFR d19/CS cells was 7.20; in the test on BaF3_EGFR LR/CS cells it was 7.00; in test [1], 8.96; in the test on Ba/F3_EGFR WT cells, 5.84; in test [2], 9.11.

As to `OCCCc1nc(-c2ccc(F)cc2)c(-c2ncnc3sc(-c4ccccc4)cc23)o1` [Example 74, 3-[4-(4-fluorophenyl)-5-(6-phenylthieno[2,3-d]pyrimidin-4-yl)-1,3-oxazol-2-yl]propan-1-ol], the pIC50 is 6.04 with BaF3_EGFR d19/CS cells; 6.57 in the test with BaF3_EGFR LR/CS cells; 8.54 in test [1]; < 4.70 with Ba/F3_EGFR WT cells; 8.03 in test [2].

With `CN(C)S(=O)(=O)CCn1cc(-c2ncnc3oc(-c4ccccc4)cc23)c(-c2ccc(F)cc2)n1` [Example 50, 2-[3-(4-fluorophenyl)-4-(6-phenylfuro[2,3-d]pyrimidin-4-yl)-1H-pyrazol-1-yl]-N,N-dimethylethane-1-sulfonamide], the pIC50 was 7.23 in the test on BaF3_EGFR d19/CS cells; 6.62 with BaF3_EGFR LR/CS cells; 8.99 in test [1]; 5.68 in the test on Ba/F3_EGFR WT cells; 9.20 in test [2].

`CC1(Cn2cc(-c3ncnc4oc(-c5ccccc5)cc34)c(-c3ccc(F)cc3)n2)COC1` [Example 59, 4-{3-(4-fluorophenyl)-1-[(3-methyloxetan-3-yl)methyl]-1H-pyrazol-4-yl}-6-phenylfuro[2,3-d]pyrimidine]: the pIC50 with BaF3_EGFR d19/CS cells was 6.67; with BaF3_EGFR LR/CS cells it was 6.63; in test [1] it was 9.12; with Ba/F3_EGFR WT cells it was 5.23; in test [2] it was 8.90.

`O=S1(=O)CC[C@@H](n2cc(-c3ncnc4oc(-c5ccccc5)cc34)c(-c3ccc(F)cc3)n2)C1` (single isomer, unassigned) [Example 72]: the pIC50 in the test with BaF3_EGFR d19/CS cells was 7.62; in the test with BaF3_EGFR LR/CS cells, 7.58; in test [1], 9.44; in the test with Ba/F3_EGFR WT cells, 5.87; in test [2] it was 9.19.

Turning to `Fc1ccc(-c2nn(CC3(F)COC3)cc2-c2ncnc3oc(-c4ccccc4)cc23)cc1` [Example 32, 4-{1-[(3-fluorooxetan-3-yl)methyl]-3-(4-fluorophenyl)-1H-pyrazol-4-yl}-6-phenylfuro[2,3-d]pyrimidine], the pIC50 was 6.94 in the test with BaF3_EGFR d19/CS cells; 6.89 in the test on BaF3_EGFR LR/CS cells; 8.90 in test [1]; 5.33 in the test on Ba/F3_EGFR WT cells; 8.87 in test [2].

As to `CC(C)(O)Cn1cc(-c2ncnc3oc(-c4ccccc4)cc23)c(-c2ccccc2)n1` [Example 110, 2-Methyl-1-[3-phenyl-4-(6-phenylfuro[2,3-d]pyrimidin-4-yl)-1H-pyrazol-1-yl]propan-2-ol], the pIC50 in the test with BaF3_EGFR d19/CS cells was 7.08; in the test on BaF3_EGFR LR/CS cells it was 7.16; in test [1] it was 9.48; in the test on Ba/F3_EGFR WT cells it was 5.86; in test [2] it was 9.16.

In the case of `Fc1ccc(-c2nn(CC3COC3)cc2-c2ncnc3oc(-c4ccccc4)cc23)cc1` [Example 47, 4-{3-(4-Fluorophenyl)-1-[(oxetan-3-yl)methyl]-1H-pyrazol-4-yl}-6-phenylfuro[2,3-d]pyrimidine], the pIC50 in the test with BaF3_EGFR d19/CS cells was 7.14; in the test on BaF3_EGFR LR/CS cells it was 7.03; in test [1], 9.33; in the test with Ba/F3_EGFR WT cells it was 5.34; in test [2], 9.23.

Consider `CC(=O)N1CC=C(c2cc3c(-c4cn(C5CS(=O)(=O)C5)nc4-c4ccc(F)cc4)ncnc3o2)CC1` [Example 108, 3-{4-[6-(1-Acetyl-1,2,3,6-tetrahydropyridin-4-yl)furo[2,3-d]pyrimidin-4-yl]-3-(4-fluorophenyl)-1H-pyrazol-1-yl}-1λ6-thietane-1,1-dione], for which the pIC50 in the test on BaF3_EGFR d19/CS cells was 6.98; in the test on BaF3_EGFR LR/CS cells, 6.89; in test [1], 9.35; with Ba/F3_EGFR WT cells, 5.82; in test [2], 8.80.

`CC(=O)N1CCC(n2cc(-c3ncnc4oc(-c5ccccc5)cc34)c(-c3ccc(F)cc3)n2)C1` (stereo not drawn) [Example 92, 1-{3-[3-(4-fluorophenyl)-4-(6-phenylfuro[2,3-d]pyrimidin-4-yl)-1H-pyrazol-1-yl]pyrrolidin-1-yl}ethan-1-one]: the pIC50 in the test on BaF3_EGFR d19/CS cells is 6.59; in the test with BaF3_EGFR LR/CS cells it was 6.64; in test [1], 9.08; in the test with Ba/F3_EGFR WT cells it was 5.21; in test [2], 9.02.

For the compound `OCCCn1cc(-c2ccnc3[nH]c(-c4ccccc4)nc23)c(-c2ccc(F)cc2)n1` [Example 4, 3-[3-(4-Fluorophenyl)-4-(2-phenyl-3H-imidazo[4,5-b]pyridin-7-yl)-1H-pyrazol-1-yl]propan-1-ol], the pIC50 with BaF3_EGFR d19/CS cells is 7.44; in the test on BaF3_EGFR LR/CS cells, 7.49; in test [1], 9.33; in the test on Ba/F3_EGFR WT cells it was 5.85; in test [2], 8.89.

Consider `COC1(Cn2cc(-c3ncnc4oc(-c5ccccc5)cc34)c(-c3ccc(F)cc3)n2)COC1` [Example 75, 4-{3-(4-fluorophenyl)-1-[(3-methoxyoxetan-3-yl)methyl]-1H-pyrazol-4-yl}-6-phenylfuro[2,3-d]pyrimidine], for which the pIC50 in the test with BaF3_EGFR d19/CS cells was 6.82; in the test on BaF3_EGFR LR/CS cells, 6.88; in test [1], 8.83; in the test on Ba/F3_EGFR WT cells, 5.23; in test [2] it was 9.00.

On to `CN(C)C(=O)CCc1nc(-c2ccc(F)cc2)c(-c2ncnc3oc(-c4ccccc4)cc23)o1` [Example 37, 3-[4-(4-fluorophenyl)-5-(6-phenylfuro[2,3-d]pyrimidin-4-yl)-1,3-oxazol-2-yl]-N,N-dimethylpropanamide], for which the pIC50 in the test with BaF3_EGFR d19/CS cells was 6.29; in the test on BaF3_EGFR LR/CS cells it was 6.50; in test [1] it was 8.59; with Ba/F3_EGFR WT cells, 5.20; in test [2] it was 8.73.

Turning to `N#CCCn1cc(-c2ncnc3oc(-c4ccccc4)cc23)c(-c2ccc(F)cc2)n1` [Example 70, 3-[3-(4-Fluorophenyl)-4-(6-phenylfuro[2,3-d]pyrimidin-4-yl)-1H-pyrazol-1-yl]propanenitrile], the pIC50 is 7.94 in the test on BaF3_EGFR d19/CS cells; 8.10 in the test with BaF3_EGFR LR/CS cells; 9.46 in test [1]; 6.17 with Ba/F3_EGFR WT cells; 9.48 in test [2].

Regarding `NC(=O)Cn1cc(-c2ncnc3oc(-c4ccccc4)cc23)c(-c2ccc(F)cc2)n1` [Example 106, 2-[3-(4-Fluorophenyl)-4-(6-phenylfuro[2,3-d]pyrimidin-4-yl)-1H-pyrazol-1-yl]acetamide], the pIC50 in the test with BaF3_EGFR d19/CS cells is 7.19; with BaF3_EGFR LR/CS cells, 7.25; in test [1], 9.42; with Ba/F3_EGFR WT cells, 5.99; in test [2] it was 9.35.

For `Fc1ccc(-c2nn(C(F)F)cc2-c2ncnc3oc(-c4ccccc4)cc23)cc1` [Example 107, 4-[1-(difluoromethyl)-3-(4-fluorophenyl)-1H-pyrazol-4-yl]-6-phenylfuro[2,3-d]pyrimidine], the pIC50 in the test on BaF3_EGFR d19/CS cells is 6.50; with BaF3_EGFR LR/CS cells it was 6.21; in test [1], 8.16; in the test with Ba/F3_EGFR WT cells it was 5.47; in test [2], 8.01.

On to `CC(=O)N1CC(n2cc(-c3ncnc4oc(-c5ccccc5)cc34)c(-c3ccc(F)cc3)n2)C1` [Example 86, 1-{3-[3-(4-fluorophenyl)-4-(6-phenylfuro[2,3-d]pyrimidin-4-yl)-1H-pyrazol-1-yl]azetidin-1-yl}ethan-1-one], for which the pIC50 in the test on BaF3_EGFR d19/CS cells was 6.37; with BaF3_EGFR LR/CS cells, 6.41; in test [1], 8.18; with Ba/F3_EGFR WT cells, 5.13; in test [2], 8.20.

As to `CC(C)(O)CCn1ncc(-c2ncnc3oc(-c4ccccc4)nc23)c1-c1ccc(F)cc1` [Example 22, 4-[5-(4-fluorophenyl)-4-(2-phenyl[1,3]oxazolo[5,4-d]pyrimidin-7-yl)-1H-pyrazol-1-yl]-2-methylbutan-2-ol], the pIC50 in the test with BaF3_EGFR d19/CS cells is 5.39; in the test with BaF3_EGFR LR/CS cells, 5.44; in test [1] it was 7.04; in the test on Ba/F3_EGFR WT cells it was 4.70; in test [2], 6.71.

Consider `CNC(=O)CCc1nc(-c2ccc(F)cc2)c(-c2ncnc3oc(-c4ccccc4)cc23)o1` [Example 36, 3-[4-(4-fluorophenyl)-5-(6-phenylfuro[2,3-d]pyrimidin-4-yl)-1,3-oxazol-2-yl]-N-methylpropanamide], for which the pIC50 with BaF3_EGFR d19/CS cells was 6.47; in the test with BaF3_EGFR LR/CS cells, 6.68; in test [1], 8.87; in the test on Ba/F3_EGFR WT cells it was 4.70; in test [2], 8.95.

Consider `CC(C)(O)Cn1cc(-c2ncnc3oc(-c4ccccc4)cc23)c(-c2ccccc2F)n1` [Example 109, 1-[3-(2-Fluorophenyl)-4-(6-phenylfuro[2,3-d]pyrimidin-4-yl)-1H-pyrazol-1-yl]-2-methylpropan-2-ol], for which the pIC50 in the test on BaF3_EGFR d19/CS cells was 7.63; with BaF3_EGFR LR/CS cells, 7.80; in test [1] it was 9.74; in the test on Ba/F3_EGFR WT cells, 6.18; in test [2] it was 9.40.
